Data as given in paper PMC10353390, “Biological and Structural Analyses of New Potent Allosteric Inhibitors of HIV-1 Integrase” (Antimicrobial Agents and Chemotherapy, 2023).

Assays:
[1] = system: NL4-3 HIV-1 with INLAI-selected IN single point mutations; type: cell-based
NL4-3 HIV-1 strain = assay: Multiple-round infection assay in MT4 cells, NL4-3; type: cell-based; details: MT4 cells
[2] = target: HIV-1 IN-LEDGF/p75 interaction (Human immunodeficiency virus type 1 group M subtype B, UniProt P12497); assay: biochemical
[3] = system: HIV-1 strains resistant to INSTIs, NRTIs, NNRTIs or PIs; type: cell-based
Description: To this end, we used both recombinant viruses constructed by introducing described drug resistance mutations into NL4-3 HIV-1 clone as well as drug-resistant clinical HIV-1 isolates.
(§1) MT4 cells growing exponentially at the density of 10^6/mL were infected with HIV-1 strain NL4-3 at a multiplicity of infection (MOI) of 0.001 for 2 h in the presence of different concentrations of compounds, and the CellTiter-Glo luminescent reagent (Promega) was used to quantify cell viability as described previously ([12]).

HIV-1 IN = target: T1, HIV-1 IN (Human immunodeficiency virus type 1 group M subtype B, UniProt P12497); assay: HTRF IN multimerization assay; type: biochemical; details: mean ± SD
T1 construct: made in house
Excerpt: A key property of INLAIs is the ability to promote HIV-1 IN homo-multimerization ([39][–][42]). […] The maximal signal (plateau) in our IN aggregation assay corresponds to the highest HTRF signal increase under saturating INLAI concentration, relative to baseline level. Thus, MUT916, MUT884, MUT871, and MUT872 increased HIV-1 IN aggregation 3.7 to 4.4-fold, while BDM-2, BI-224436, and S-I-82 did so 5 to 6-fold (Table 1).

[4] = target: CCD of HIV-1 IN and IBD of LEDGF/p75 (Human immunodeficiency virus type 1 group M subtype B, UniProt P12497); assay: biochemical
[5] = system: recombinant NL4-3 viruses with polymorphisms at IN positions 124 and 125; assay: Multiple-round infection of MT4 cells with recombinant NL4-3 viruses polymorphic at IN positions 124 and 125; type: cell-based, HIV-1
Excerpt: Located on the HIV-1 IN CCD dimerization interface, the principal INLAI binding pocket overlaps with a hot spot of amino acid sequence polymorphism involving IN residues 124 and 125 ([16]). To test if the new INLAIs maintained antiviral activity against major polymorphisms, we introduced all major combinations of residues found in circulating HIV-1 strains at positions 124 and 125 into NL4-3 HIV-1 molecular clone. In total, we evaluated 15 such combinations that collectively covered 98% of all HIV-1 clade polymorphisms involving these positions ([48]). To gauge effects on the antiviral activity, we calculated the EC50 fold change (FC) relative to wild type NL4-3 HIV-1 strain that features Thr124 and Thr125 (TT; specific polymorphisms are referred to by a single letter amino acid code).
as §1

[6] = Cytotoxicity assay in MT4 cells; type: cell-based; details: human, MT4 cells (proliferating human T-cell line), CellTiter-Glo
Excerpt: Growth inhibition was monitored in a proliferating human T-cell line (MT4) with different concentrations of compounds, using the CellTiter-Glo luminescent reagent (Promega), as previously described ([12]).

HXB2 HIV-1 strain = assay: Multiple-round infection assay in MT4 cells, HXB2; type: cell-based; details: Human immunodeficiency virus 1, HXB2; multiple-round infection, MT4 cells; mean ± SD, n > 5; read-out: EC50 HXB2
Description: Antiretroviral activity of BDM-2 and its analogs was first evaluated in lymphoblastoid cell line MT4 and in primary human T lymphocytes using NL4-3 and HXB2 laboratory HIV-1 isolates.
as §1

[7] = system: VSV-G-pseudotyped NL4-3Δenv-luc; assay: microbe, parasite or virus in culture; type: cell-based, HIV-1
[8] = system: primary HIV-1 isolates with polymorphisms at IN positions 124 and 125; assay: Multiple-round infection of MT4 cells with primary HIV-1 isolates polymorphic at IN positions 124 and 125; type: cell-based; details: primary isolate
Description: Next, we evaluated the potency of the BDM-2 series of INLAIs against several primary HIV-1 isolates with polymorphisms at IN positions 124 and 125.
as §1

[9] = INSTI-resistant, NL4-3 background

With `Cc1ccc(C2CC2)c(-c2cc(F)c3c(c2C)CCCO3)c1[C@H](OC1CC1)C(=O)O` [MUT916] the “EC50 fold change compared to wild type NL4-3, A128T” value [1] was 4, the “EC50 fold change compared to wild type NL4-3, H171Q” value [1] was 1 and the “EC50 fold change compared to wild type NL4-3, N222K” value [1] was 3. The “EC50 fold change compared to wild type NL4-3, T174I” value [1] was 14, the “EC50 fold change compared to wild type NL4-3, Y99H” value [1] was 3 and the EC90 (NL4-3 HIV-1 strain; Human immunodeficiency virus 1, NL43, multiple-round infection, from dose response curves, read-out: EC90 NL4-3) was 30 ± 15 nM. For the same compound, the EC50 (NL4-3 HIV-1 strain; Human immunodeficiency virus 1, NL43, multiple-round infection, mean ± SD, n > 5, read-out: EC50 NL4-3) was 20 ± 9 nM, the “Selectivity index CC50/EC50 NL4-3” value (NL4-3 HIV-1 strain) was 3,900 and the IC50 [2] was 46 ± 16 nM. The “Fold change in EC50 relative to NL4-3, E92Q” value [3, 9] was 1, the “Fold change in EC50 relative to NL4-3, G140S” value [3, 9] was 1 and the “Fold change in EC50 relative to NL4-3, G140S/Q148H” value [3, 9] was 1. The “Fold change in EC50 relative to NL4-3, N155H” value [3, 9] was 1, the “Fold change in EC50 relative to NL4-3, Q148H” value [3, 9] was 1 and the “Fold change in EC50 relative to NL4-3, Y143R” value [3, 9] was 0.4. The “Fold change in EC50 relative to NL4-3, NLAY351717” value ([3]; NRTI-resistant clone) was 1, the “Fold change in EC50 relative to NL4-3, NLAY351753” value ([3]; NRTI/NNRTI-resistant clone) was 2 and the “Fold change in EC50 relative to NL4-3, K103N/Y181C” value ([3]; NRTI/NNRTIs group, NL4-3 background) was 1. The “Fold change in EC50 relative to NL4-3, ARP-4595” value ([3]; PI-resistant virus) was 2, the “Fold change in EC50 relative to NL4-3, ARP-4596” value ([3]; PI-resistant virus) was 1 and the “Fold change in EC50 relative to NL4-3, ARP-11801” value ([3]; PI-resistant virus) was 2. For the same compound, the “Fold change in EC50 relative to NL4-3, ARP-11803” value ([3]; PI-resistant virus) was 2, the “Fold change in EC50 relative to NL4-3, ARP-11807” value ([3]; PI-resistant virus) was 2 and the “Fold change in EC50 relative to NL4-3, ARP-11808” value ([3]; PI-resistant virus) was 2. The AC50 (HIV-1 IN; concentration for 50% maximum activation of multimerization) was 22 ± 2 nM, the “IN multimerization Plateau” value (HIV-1 IN; maximum multimerization reached versus baseline) was 370 ± 60% and the IC50 [4] was 19 ± 8 nM. For the same compound, the “Fold change in EC50 relative to parental NL4-3, AA” value ([5]; recombinant NL4-3, IN 124/125 AA) was 1, the “Fold change in EC50 relative to parental NL4-3, AM” value ([5]; recombinant NL4-3, IN 124/125 AM) was 0.2 and the “Fold change in EC50 relative to parental NL4-3, AT” value ([5]; recombinant NL4-3, IN 124/125 AT) was 0.5. For the same compound, the “Fold change in EC50 relative to parental NL4-3, AV” value ([5]; recombinant NL4-3, IN 124/125 AV) was 0.4, the “Fold change in EC50 relative to parental NL4-3, GA” value ([5]; recombinant NL4-3, IN 124/125 GA) was 1 and the “Fold change in EC50 relative to parental NL4-3, GT” value ([5]; recombinant NL4-3, IN 124/125 GT) was 1. The “Fold change in EC50 relative to parental NL4-3, NA” value ([5]; recombinant NL4-3, IN 124/125 NA) was 4, the “Fold change in EC50 relative to parental NL4-3, NT” value ([5]; recombinant NL4-3, IN 124/125 NT) was 1 and the “Fold change in EC50 relative to parental NL4-3, NV” value ([5]; recombinant NL4-3, IN 124/125 NV) was 0.4. For the same compound, the “Fold change in EC50 relative to parental NL4-3, SA” value ([5]; recombinant NL4-3, IN 124/125 SA) was 1, the “Fold change in EC50 relative to parental NL4-3, ST” value ([5]; recombinant NL4-3, IN 124/125 ST) was 1 and the “Fold change in EC50 relative to parental NL4-3, TA” value ([5]; recombinant NL4-3, IN 124/125 TA) was 1. The “Fold change in EC50 relative to parental NL4-3, TM” value ([5]; recombinant NL4-3, IN 124/125 TM) was 0.2, the “Fold change in EC50 relative to parental NL4-3, TV” value ([5]; recombinant NL4-3, IN 124/125 TV) was 0.4 and the CC50 [6] was 78000 ± 6000 nM. The EC50 (HXB2 HIV-1 strain) was 8.8 ± 0.8 nM, the “EC50 ratio (single/multiple-round infection)” value [7] was 105 and the EC50 ([7]; Human immunodeficiency virus 1, NL43, MT4, read-out: EC50 in single-round infection) was 2100 ± 200 nM. For the same compound, the “Fold change in EC50 relative to parental NL4-3, CAM2BBY (CRF02)” value ([8]; IN 124/125 AA) was 1, the “Fold change in EC50 relative to parental NL4-3, E0836M4 (D)” value ([8]; IN 124/125 AA) was 1 and the “Fold change in EC50 relative to parental NL4-3, KER2008 (A)” value ([8]; IN 124/125 AA) was 1. The “Fold change in EC50 relative to parental NL4-3, NP1525 (CRF01)” value ([8]; IN 124/125 AA) was 1, the “Fold change in EC50 relative to parental NL4-3, NP1695 (CRF02)” value ([8]; IN 124/125 AA) was 2 and the “Fold change in EC50 relative to parental NL4-3, TZA125 (C)” value ([8]; IN 124/125 AA) was 0.4. The “Fold change in EC50 relative to parental NL4-3, KSM4030 (A)” value ([8]; IN 124/125 GA) was 1, the “Fold change in EC50 relative to parental NL4-3, vGA (C)” value ([8]; IN 124/125 GA) was 5 and the “Fold change in EC50 relative to parental NL4-3, 99ET14 (C)” value ([8]; IN 124/125 NA) was 2. For the same compound, the “Fold change in EC50 relative to parental NL4-3, NP1538 (B)” value ([8]; IN 124/125 NA) was 2, the “Fold change in EC50 relative to parental NL4-3, vNA_1 (B)” value ([8]; IN 124/125 NA) was 4 and the “Fold change in EC50 relative to parental NL4-3, vNA_2 (CRF02)” value ([8]; IN 124/125 NA) was 10. For the same compound, the “Fold change in EC50 relative to parental NL4-3, vNV (B)” value ([8]; IN 124/125 NV) was 1, the “Fold change in EC50 relative to parental NL4-3, vSA_1 (B)” value ([8]; IN 124/125 SA) was 3 and the “Fold change in EC50 relative to parental NL4-3, vSA_2 (CRF02)” value ([8]; IN 124/125 SA) was 4. For the same compound, the “Fold change in EC50 relative to parental NL4-3, vTA_1 (B)” value ([8]; IN 124/125 TA) was 2 and the “Fold change in EC50 relative to parental NL4-3, vTA_2 (CRF02)” value ([8]; IN 124/125 TA) was 2.
